How the values were obtained:
rat [1] = settings: Sub-acute repeat dose toxicity, sprague dawley, Oral, Gavage/Intubation, dose end: 30 day, group: systemic
rat [2] = settings: Sub-acute repeat dose toxicity, sprague dawley, Oral, Gavage/Intubation, dose end: 14 day, group: systemic
rat [3] = settings: Sub-acute repeat dose toxicity, Oral, Gavage/Intubation, dose end: 7 day, group: systemic
dog [4] = settings: Sub-acute repeat dose toxicity, beagle, Oral, Gavage/Intubation, dose end: 14 day, group: systemic
rat [5] = settings: Sub-acute repeat dose toxicity; Oral; Gavage/Intubation; dose end: 14 day; group: systemic; systemic / in life observation / clinical signs / convulsions + systemic / in life observation / clinical signs / reduced activity + …
rat [6] = settings: Carcinogenicity, fischer, Oral, Gavage/Intubation, dose end: 102 week, group: systemic
rat [7] = settings: Subchronic oral toxicity in rodents, fischer, Gavage/Intubation, dose end: 13 week, group: systemic
mouse [8] = settings: Carcinogenicity, b6c3f1, Oral, Gavage/Intubation, dose end: 102 week, group: systemic
mouse [9] = settings: Subchronic oral toxicity in rodents, b6c3f1, Gavage/Intubation, dose end: 13 week, group: systemic
rat [10] = settings: Sub-acute repeat dose toxicity; Oral; Gavage/Intubation; dose end: 14 day; group: systemic; systemic / in life observation / clinical signs / ataxia + systemic / in life observation / clinical signs / urine staining - perineum + …
rabbit = settings: Prenatal developmental toxicity study; Oral; Gavage/Intubation; dose end: 19 GD; group: maternal; systemic / in life observation / clinical signs / abnormal feces + systemic / in life observation / clinical signs / red or crusty deposits …
rat [11] = settings: Fertility (Segment I), Oral, Gavage/Intubation, dose end: 1 generation, group: parental
primate = settings: Subchronic oral toxicity in nonrodent, Gavage/Intubation, dose end: 91 day, group: systemic, systemic / in life observation / body weight / body weight + systemic / in life observation / clinical signs / [other] + systemic / in life …
rat [12] = settings: Sub-acute repeat dose toxicity; wistar; Oral; Gavage/Intubation; dose end: 7 day; group: systemic; systemic / clinical chemistry / [other] / [other] + systemic / pathology microscopic / blood / vasculitis
mouse [13] = settings: Subchronic oral toxicity in rodents, Feed, dose end: 90 day, group: systemic, systemic / pathology microscopic / liver / clear cell focus + systemic / pathology microscopic / liver / [other] + systemic / clinical …
rat [14] = settings: Combined chronic toxicity/carcinogenicity, other, Oral, Feed, dose end: 104 week, group: systemic
dog [15] = settings: Chronic toxicity, beagle, Oral, Capsule, dose end: 52 week, group: systemic
rat [16] = settings: Peri- and post-natal toxicity study (Segment III), wistar, Oral, [Not Specified], dose end: 21 PND
rat [17] = settings: Subchronic oral toxicity in rodents, wistar, Feed, dose end: 6 month, group: systemic
rat [18] = settings: Subchronic oral toxicity in rodents, wistar, Feed, dose end: 3 month, group: systemic
mouse [19] = settings: Prenatal developmental toxicity study, cd1, Oral, Gavage/Intubation, dose end: 16 GD
mouse [20] = settings: Combined chronic toxicity/carcinogenicity; other; Oral; Feed; dose end: 101 week; group: systemic; systemic / pathology microscopic / liver / enlarged vacuoles + systemic / pathology microscopic / liver / focal cellular change + systemic…
rat [21] = settings: Multigenerational reproductive toxicity study, wistar, Oral, Feed, dose end: 2 generation
mouse [22] = settings: Prenatal developmental toxicity study, cd1, Oral, Gavage/Intubation, dose end: 16 GD, group: maternal
[23] = systemic / clinical chemistry / aspartate aminotransferase (ast/sgot) / aspartate aminotransferase (ast/sgot) + systemic / clinical …
[24] = systemic / clinical chemistry / [other] / [other] + systemic / in life observation / body weight / body weight gain + systemic / in life …
[25] = systemic / pathology microscopic / liver / fatty change + systemic / pathology microscopic / liver / hypertrophy
[26] = systemic / clinical chemistry / cholesterol / cholesterol + systemic / clinical chemistry / gamma glutamyl transferase (ggt) / gamma …
[27] = systemic / in life observation / clinical signs / abnormal feces + systemic / in life observation / clinical signs / arrhythmia
[28] = systemic / in life observation / clinical signs / abnormal feces + systemic / in life observation / clinical signs / arrhythmia + systemic…
[29] = systemic / pathology microscopic / intestine large / adenocarcinoma + systemic / pathology microscopic / intestine large / polyp adenomatous…
[30] = systemic / pathology microscopic / kidney / cytomegaly + systemic / pathology microscopic / liver / necrosis
[31] = systemic / in life observation / body weight / body weight + systemic / in life observation / mortality / mortality + systemic / pathology …
[32] = systemic / pathology microscopic / kidney / cytomegaly + systemic / pathology microscopic / thyroid gland / hyperplasia
[33] = systemic / pathology microscopic / kidney / cytomegaly + systemic / pathology microscopic / thyroid gland / hyperplasia + systemic / …
[34] = systemic / in life observation / body weight / body weight + systemic / pathology microscopic / liver / granuloma + systemic / pathology …
[35] = systemic / in life observation / clinical signs / abnormal feces + systemic / in life observation / clinical signs / convulsions + systemic…
[36] = systemic / in life observation / clinical signs / convulsions + systemic / in life observation / clinical signs / salivation
[37] = systemic / pathology microscopic / thyroid gland / neoplasm nos + systemic / in life observation / body weight / body weight + systemic / in…
[38] = systemic / clinical chemistry / alkaline phosphatase (alp/alk) / alkaline phosphatase (alp/alk) + systemic / in life observation / body …
[39] = group: developmental, developmental / offspring survival late / viability index / viability index
[40] = group: maternal, reproductive / offspring survival early / dead fetuses / dead fetuses + reproductive / offspring survival early / litter size / litter size
[41] = group: parental, systemic / in life observation / food consumption / food consumption + systemic / in life observation / mortality / mortality
[42] = systemic / clinical chemistry / glucose / glucose
[43] = systemic / clinical chemistry / glucose / glucose + systemic / clinical chemistry / lactic acid dehydrogenase (ldh) / lactic acid …
[44] = systemic / organ weight / adrenal gland / absolute + systemic / organ weight / adrenal gland / relative to body weight + systemic / …
[45] = group: developmental, developmental / developmental malformation / bone / supernumerary
[46] = group: developmental, developmental / developmental malformation / bone / supernumerary + developmental / developmental malformation / bone / [other] + …
[47] = group: maternal, reproductive / reproductive performance / estrous cycle / corpora lutea
[48] = group: offspring, developmental / offspring survival late / viability index / viability index + developmental / offspring survival late / lactation index / …
[49] = group: offspring, developmental / offspring survival late / viability index / viability index + reproductive / offspring survival early / dead fetuses / dead …
[50] = group: parental, systemic / in life observation / body weight / body weight gain
[51] = group: parental, systemic / in life observation / body weight / body weight gain + systemic / in life observation / body weight / body weight + systemic / …
[52] = group: reproductive, reproductive / reproductive performance / gestational length / gestational length + reproductive / reproductive performance / dystocia / …
[53] = systemic / in life observation / body weight / body weight gain + systemic / in life observation / body weight / dam weight + systemic / in …

## CC[C@H]1CC[C@H](NCc2cc3c(cc2OC)[C@H]2C[C@H]2C(=O)N3C)[C@H](c2ccccc2)N1
Rat [1]; [23]
  LOAEL: > 100 mg/kg/day
  NEL: 3 mg/kg/day
  NOAEL: ≥ 100 mg/kg/day
Rat [1]; systemic / in life observation / clinical signs / salivation + systemic / organ weight / liver / absolute
  LEL: 30 mg/kg/day
Rat [2]; [24]
  LOAEL: > 100 mg/kg/day
  NOAEL: ≥ 100 mg/kg/day
Rat [2]; [25]
  LEL: 6 mg/kg/day
  NEL: < 6 mg/kg/day
Rat [3]; [26]
  LOAEL: > 100 mg/kg/day
  NEL: 3 mg/kg/day
  NOAEL: ≥ 100 mg/kg/day
Rat [3]; systemic / organ weight / liver / absolute
  LEL: 30 mg/kg/day
Dog [4]; [27]
  LEL: 3 mg/kg/day
  NEL: < 3 mg/kg/day
Dog [4]; [28]
  LOAEL: > 15 mg/kg/day
  NOAEL: ≥ 15 mg/kg/day
Rat [5]
  LEL: 100 mg/kg/day
  LOAEL: > 100 mg/kg/day
  NOAEL: ≥ 100 mg/kg/day

## ClC(Cl)Br [Bromodichloromethane]
Rat [6]; [29]
  LOAEL: > 100 mg/kg/day
  NOAEL: ≥ 100 mg/kg/day
Rat [6]; [30]
  LEL: 50 mg/kg/day
  NEL: < 50 mg/kg/day
Rat [7]; systemic / in life observation / body weight / body weight
  LEL: 150 mg/kg/day
Rat [7]; [31]
  LOAEL: > 300 mg/kg/day
  NEL: 75 mg/kg/day
  NOAEL: ≥ 300 mg/kg/day
Mouse [8]; [32]
  LOAEL: 25 mg/kg/day
  NOAEL: < 25 mg/kg/day
Mouse [8]; [33]
  LEL: 25 mg/kg/day
  NEL: < 25 mg/kg/day
Mouse [9]; systemic / in life observation / body weight / body weight + systemic / pathology microscopic / kidney / necrosis
  LEL: 100 mg/kg/day
Mouse [9]; [34]
  LOAEL: > 400 mg/kg/day
  NOAEL: ≥ 400 mg/kg/day

## Cc1cc2c3c(c1)C(c1ccccc1)=N[C@@H](NC(=O)c1ccncc1)C(=O)N3CC2 [CI-1018]
Rat [10]
  LEL: 1000 mg/kg/day
  LOAEL: > 1000 mg/kg/day
  NEL: 300 mg/kg/day
  NOAEL: ≥ 1000 mg/kg/day
rabbit
  LOAEL: > 100 mg/kg/day
  NEL: 10 mg/kg/day
  NOAEL: ≥ 100 mg/kg/day
Rat [11]; [35]
  LOAEL: > 300 mg/kg/day
  NOAEL: ≥ 300 mg/kg/day
Rat [11]; [36]
  LEL: 30 mg/kg/day
  NEL: < 30 mg/kg/day
primate
  LEL: 740 mg/kg/day
  LOAEL: > 740 mg/kg/day
  NEL: < 740 mg/kg/day
  NOAEL: ≥ 740 mg/kg/day
Rat [12]
  LEL: 375 mg/kg/day
  LOAEL: > 750 mg/kg/day
  NEL: 75 mg/kg/day
  NOAEL: ≥ 750 mg/kg/day

## C=CCOC(Cn1ccnc1)c1ccc(Cl)cc1Cl (configuration not stated) [Imazalil]
Mouse [13]
  LEL: 38.6 mg/kg/day
  LOAEL: 38.6 mg/kg/day
  NEL: 9.5 mg/kg/day
  NOAEL: 9.5 mg/kg/day
Rat [14]; systemic / pathology microscopic / liver / pigmentation
  LEL: 14.6 mg/kg/day
Rat [14]; systemic / pathology microscopic / liver / pigmentation + systemic / clinical chemistry / alanine aminotransferase (alt/sgpt) / alanine …
  NEL: 3.6 mg/kg/day
Rat [14]; [37]
  LOAEL: 65.8 mg/kg/day
  NOAEL: 10.8 mg/kg/day
Dog [15]; [38]
  LOAEL: 20 mg/kg/day
  NEL: 1.25 mg/kg/day
  NOAEL: 2.5 mg/kg/day
Dog [15]; systemic / organ weight / liver / absolute + systemic / organ weight / liver / relative to body weight
  LEL: 2.5 mg/kg/day
Rat [16]; [39]
  LEL: 80 mg/kg/day
  LOAEL: > 80 mg/kg/day
  NEL: 20 mg/kg/day
  NOAEL: ≥ 80 mg/kg/day
Rat [16]; [40]
  LEL: 80 mg/kg/day
  LOAEL: > 80 mg/kg/day
  NEL: 20 mg/kg/day
  NOAEL: ≥ 80 mg/kg/day
Rat [16]; [41]
  LEL: 80 mg/kg/day
  LOAEL: > 80 mg/kg/day
  NEL: 20 mg/kg/day
  NOAEL: ≥ 80 mg/kg/day
Rat [17]; [42]
  LEL: 1.25 mg/kg/day
  NEL: < 1.25 mg/kg/day
Rat [17]; [43]
  LOAEL: 20 mg/kg/day
  NOAEL: 5 mg/kg/day
Rat [18]; [44]
  LOAEL: 37.9 mg/kg/day
  NOAEL: 18.7 mg/kg/day
Rat [18]; systemic / organ weight / liver / absolute + systemic / organ weight / adrenal gland / absolute + systemic / organ weight / adrenal gland / …
  NEL: 90.1 mg/kg/day
Mouse [19]; [45]
  LEL: 80 mg/kg/day
  LOAEL: 80 mg/kg/day
Mouse [19]; [46]
  NEL: 40 mg/kg/day
  NOAEL: 40 mg/kg/day
Mouse [19]; [47]
  LEL: 10 mg/kg/day
  NEL: < 10 mg/kg/day
Mouse [19]; group: maternal, systemic / in life observation / body weight / body weight gain + systemic / in life observation / food consumption / food consumption
  LOAEL: 40 mg/kg/day
Mouse [19]; group: maternal, systemic / in life observation / body weight / body weight gain + systemic / in life observation / food consumption / food consumption + …
  NOAEL: 10 mg/kg/day
Mouse [20]
  LEL: 28 mg/kg/day
  LOAEL: 28 mg/kg/day
  NEL: 6.67 mg/kg/day
  NOAEL: 6.67 mg/kg/day
Rat [21]; [48]
  LEL: 5 mg/kg/day
  NEL: < 5 mg/kg/day
Rat [21]; [49]
  LOAEL: 80 mg/kg/day
  NOAEL: 20 mg/kg/day
Rat [21]; [50]
  NEL: 20 mg/kg/day
  NOAEL: 20 mg/kg/day
Rat [21]; [51]
  LEL: 80 mg/kg/day
  LOAEL: 80 mg/kg/day
Rat [21]; group: reproductive, reproductive / reproductive performance / gestational length / gestational length
  LOAEL: 80 mg/kg/day
Rat [21]; [52]
  LEL: 80 mg/kg/day
  NEL: 20 mg/kg/day
  NOAEL: 20 mg/kg/day
Mouse [22]; systemic / in life observation / body weight / body weight gain
  LOAEL: 80 mg/kg/day
Mouse [22]; [53]
  LEL: 80 mg/kg/day
  NEL: 40 mg/kg/day
  NOAEL: 40 mg/kg/day

Reference: EPA's ToxRefDB 2
